Data: US7923445B2, “Methods for treatment of diseases related to activated lymphocytes” (Immune Control, Inc., priority 2006, dated 2011)

Tests used:
TNF-α = assay: LPS-mediated cytokine production model, serum TNF-α; type: in vivo, CD1:ICR mice; conditions: for TNFα inhibition, IV versus IP administration: pre-dose time course, 10 mg/kg; for TNFα inhibition in dose-response study: IP, up to a dose of 5 mg/kg, pre-dose 1 hr
Description: Bolus injection of lethal or sub-lethal doses of lipopolysaccharide (LPS; the major component of bacterial cell walls) results in a rapid and transient rise in serum cytokine levels (e.g. TNF-α) in mammals. This animal model was originally developed to mirror certain aspects of septic shock in humans; however, there is poor correlation between efficacy in LPS-rodent models and clinical efficacy. However, this model may be an effective first-line general inflammation model and could be useful in determining the anti-inflammatory potential of test compounds. A variety of clinically approved anti-inflammatory compounds, including glucocorticoids, NSAIDS and COX-2 inhibitors are extremely effective in this model. Compounds ICI-685 and ICI-735 were tested for their ability to inhibit LPS-stimulated TNF-α and IL-1β production.
Both ICI-685 and ICI-735 were formulated in water. For the time course study, both drugs were formulated at a concentration of 1 mg/ml and dosed 10 ml/kg to produce a dose of 10 mg/kg. For the dose-response study, drug was formulated at concentrations of 0.05, 0.2 and 0.5 mg/ml and dosed at a volume of 10 ml/kg to produce doses of 0.5, 2 and 5 mg/kg, respectively. Animals were dosed IV or IP.
CD1:ICR mice were obtained from Harlan (Indianapolis, Ind.) at 6 weeks of age. Animals were housed 5 per cage, kept on a 12 hr light dark cycle and fed food and water ad libitum. Animals were tested at 8-10 weeks of age.
Lipopolysaccharide (heat killed E. coli 0127:B5; Sigma Aldrich) was prepared in distilled water at a concentration of 0.025 mg/ml. LPS was dosed at a volume of 10 ml/kg (IP) to produce a final dose of 0.25 mg/kg (approximately 7.5 μg/mouse). Drugs were dosed prior to LPS administration as indicated elsewhere herein. Blood was collected by retro-orbital eye bleed 90 minutes after LPS administration. Serum was prepared from blood and TNF-α and IL-1β levels were measured by using the OPT-EIA mouse TNF-α and IL-1β ELISA kits (BD Biosciences) as per directions of the manufacturer.
The first study was designed to determine the optimal route of administration and the optimal pre-treatment time. Two pre-dose time course studies were conducted. The first (Study 1A) was conducted with 3 pre-dose time points (2, 6 and 18 hrs). The second was conducted at 0, 1 and 2 hr predose time points. For both studies, drug was dosed IP or IV.
Using data from the first study, a second study was conducted that was designed to measure dose-response activity of each compound. Compounds were tested at doses of 0, 2.0 and 5 mg/kg using the route and pre-treatment time that produced the best activity. […]
Using data from the first study, a second study was conducted that was designed to measure dose-response activity of each compound. Compounds were tested at doses of 0.5, 2.0 and 5 mg/kg using the route and pre-treatment time that produced the best activity.

[1] = test system: Aspergillus fumigatus-based mouse asthma model; assay: Aspergillus fumigatus-based mouse asthma model, lung resistance; type: in vivo; conditions: intraperitoneally at a dose of 20 mg/ml
Method: Compounds of the invention were also tested for efficiacy in an asthma model.
A cohort of mice were administered intraperitoneal injections of Aspergillus fumigatus on days 0, 14, 26, 27, and 28. Lung resistance was tested on day 29 immediately following a tracheotomy/methacholine procedure. Animals receiving dexamethasone were administered dexamethasone on days 26, 27 and 28. Animals receiving a compound of the invention were administered the compound just hours before the lung resistance test. As a control, all test compounds, as well as dexamethasone, were also administered to mice in the absence of an A. fumigatus insult.

[2] = test system: mice sensitized with collagen injections; assay: Clinical arthritis score in mice sensitized with collagen injections; type: in vivo
Method: FIGS. 26-28 illustrate the effect of various compounds of the invention on the clinical arthritis score of mice treated with various compounds of the invention.
Additional testing of the effectiveness of compounds ICI-685, ICI-735 and ICI-847 at higher and lower concentrations were conducted, as illustrated in FIG. 29.

**Q.** With `CN(C)S(=O)(=O)c1ccc2c(c1)N(CCCN1CCN(CCN)CC1)c1ccccc1S2` [ICI-715] as the compound, how does the “TNFα inhibition, IV versus IP administration” value (TNF-α) read?
**A.** IV administration of ICI-715 produced slightly better inhibition than IV administration

**Q.** For `NCC(=O)NCCN1CCN(CCCN2c3ccccc3Sc3ccc(C(F)(F)F)cc32)CC1` [ICI-735], which “decreasing lung resistance, compared with dexamethasone” value [1] is on record?
**A.** at least as effective as dexamethasone

**Q.** How did the “TNFα inhibition in dose-response study” value (TNF-α) turn out when `FC(F)(F)c1ccc2c(c1)N(CCCC1CCNCC1)c1ccccc1S2` [ICI-824] was run?
**A.** ineffective

**Q.** And the “TNFα inhibition, IV versus IP administration” value (TNF-α)?
**A.** IP administration produced slightly better inhibition than IV administration

**Q.** How did the “decreasing lung resistance, compared with dexamethasone” value [1] turn out when `NCCCN1CCC(CCCN2c3ccccc3Sc3ccc(C(F)(F)F)cc32)CC1` [ICI-847] was run?
**A.** at least as effective as dexamethasone

**Q.** And the “clinical arthritis score, compared with dexamethasone” value ([2]; 30 mg/kg)?
**A.** as effective for the length of the study as is dexamethasone

**Q.** And the “clinical arthritis score, compared with dexamethasone” value ([2]; orally at 10 mg/kg daily, for about 21 days)?
**A.** as effective as dexamethasone

**Q.** Which results are given for `NCCN1CCN(CCCCN2c3ccccc3Sc3ccc(C(F)(F)F)cc32)CC1` [ICI-953]?
**A.** TNFα inhibition in dose-response study (TNF-α): ineffective; TNFα inhibition, IV versus IP administration (TNF-α): IP administration produced slightly better inhibition than IV administration

**Q.** Which results are given for `NCC(=O)NCCN1CCN(CCCCN2c3ccccc3Sc3ccc(C(F)(F)F)cc32)CC1` [ICI-954]?
**A.** TNFα inhibition in dose-response study (TNF-α): ineffective; TNFα inhibition, IV versus IP administration (TNF-α): IP administration produced slightly better inhibition than IV administration
